Experimental data as given in patent publication US20090170091A1, “Method For Predicting Biological Systems Responses” (priority 2006, published 2009).
Where two headings read alike, the source gives them in different places.

Experiments:
HeLa cells = HeLa cells after camptothecin treatment; mRNA abundance; cited from earlier work
HepG2 cells = experiment: CellCipher cytotox profile, multiplexed HCS toxicity panel (11 cytotoxicity parameters, two plate assay); type: cell-based
Source text: This example pertains to a multiplexed toxicity HCS profiling panel. It describes the performance of a specific CellCipher™ cytotox profile which is designed to measure 11 cytotoxicity parameters using a two plate assay.
Assay and Reagent Specifications. […] The antibody and fluorescent indicators of cell physiology reagent specifications for Cytotox Profile Plate 1 are contained in Table 7 whereas the antibody and fluorescent indicators of cell physiology reagent specifications for Cytotox Profile Plate 2 are contained in Table 8. Finally, the assay buffer specifications for both Cytotox Profile Plates 1 and 2 are contained in Table 9.
HepG2 cell handling and plating procedure. HepG2 cells were obtained from the American Type Cell Collection (cat no. HB-8065) and an original seed stock was prepared from one vial containing 1×10^+6 cells. From the seed stock, a working stock was prepared using standard procedures. Cells were thawed form the working stock when required and maintained in culture for 20 passages before being discarded. […]
Cell plating for cytotox profile. For the cytotox profile, thin bottom 384-well microplates were used that are compatible with the high numerical aperture optics available on most HCS readers. […] Cells were passaged by trypsinization, including trituration, and viable cells counted. […]

## CC[C@@]1(O)C(=O)OCc2c1cc1n(c2=O)Cc2cc3ccccc3nc2-1 [camptothecin]
HeLa cells
  Double strand DNA break repair genes, change: 4.0%
  Histone genes, change: 8.1%
  Mitosis related genes, change: 9.7%
  NF-κB inducible genes, change: 12.5%
  Nuclear compartment genes, change: 16.5%
  p53-inducible genes, change: 28.1%

## CC[C@H](C)C(=O)O[C@H]1C[C@@H](C)C=C2C=C[C@H](C)[C@H](CC[C@@H]3C[C@@H](O)CC(=O)O3)[C@H]21 [lovastatin]
HepG2 cells; HepG2 cells, 11 features at 30 min, 24 h and 72 h, FIG. 9 heat map clusters
  degree of activity (IC50 from KS dose-response fits) across the cytotox profile assays: moderate degree of activity (in the μM range) in many assays

## CC[C@H](C)C(=O)O[C@H]1CCC=C2C=C[C@H](C)[C@H](CC[C@@H]3C[C@@H](O)CC(=O)O3)[C@H]21 [mevastatin]
HepG2 cells
  degree of activity (IC50 from KS dose-response fits) across the cytotox profile assays: moderate degree of activity (in the μM range) in many assays
